Assay results as given in patent publication US20140356383A1, “ADMINISTRATION OF AN ANTI-GCC ANTIBODY-DRUG CONJUGATE AND A DNA DAMAGING AGENT IN THE TREATMENT OF CANCER” (priority 2013, published 2014).
Square brackets hold non-standard residues; d marks the D form. Peptide text beside a SMILES is read from it. * marks the point of attachment. Dolaproine = CO[C@@H]([C@@H]1CCCN1)[C@@H](C)C(=O)O; Hexanoyl(6-maleimido) = O=C1C=CC(=O)N1CCCCCC(=O)*; Dil = CC[C@H](C)[C@H](NC)[C@@H](CC(=O)O)OC; X1 = C[C@@H](N*)[C@@H](O)c1ccccc1; NMeV = CN[C@H](C(=O)O)C(C)C

Key:
[1] = tested on: 293 GCC#2 tumors; test: Efficacy study with auristatin conjugates in 293 GCC#2 tumors, q7d×4; type: in vivo, SCID mice; parameters: TGI / TGD: unit not given here; settings: for CR/PR: complete response/partial response; for T/C: treatment/control; for TGD: tumor growth delay
Experimental: 293 GCC#2 tumor-bearing SCID mice were treated with 5F9 conjugates with vc MMAE, vcMMAF or mcMMAF at three doses in comparison with 209 conjugates of these toxins or with free toxins or vehicle control. Doses were administered iv on a q7d×4 schedule. Tumors were harvested at days 3, 7, 10, 13 and 17. […] Table 18 provides a summary of the results (TGI=tumor growth inhibition, T/C=treatment/control, TGD=tumor growth delay, CR/PR=complete response/partial response; p value=measure to judge statistical significance, NS=not significant).

[2] = tested on: PHTX-9c primary human colon tumor xenograft; test: Single agent antitumor activity in PHTX-9c (PHTX-09c) primary human colon tumor xenograft
Experimental: Female CB-17 SCID mice (eight weeks old) were inoculated subcutaneously (SC) into the flank with PHTX-9c tumor fragments (2 mm×2 mm). Tumor growth was monitored twice per week using vernier calipers and the mean tumor volume was calculated using the formula (0.5×[length×width^2]). When the mean tumor volume reached approximately 150 mm^3 (Study A) or 160 mm^3 (Study B), animals were randomized into treatment groups (n=10/group for Study A and n=9/group for Study B).
Doses were administered on Days 1, 8, and 15 for the QW schedule and Days 1, 4, 8, 11, 15, and 18 for the BIW schedule. […] The equivalent dose of linker+MMAE is 4% of the 5F9-vcMMAE dose. These calculations are based on a mean 3.9 MMAE molecules per antibody and a free antibody molecular weight of 150 kD. Actual antibody molecular weight will vary slightly due to degree of glycosylation.
Tumor volume and body weight were measured twice weekly and were continued beyond the treatment period to measure regrowth kinetics, as evidenced by tumor growth delay (TGD). Tumor volume measurements were continued until tumor volume reached 10% of the body weight in a single mouse within a treatment group, at which time the group was terminated. The percentage of tumor growth inhibition (TGI) ([mean tumor volume of the control group—mean tumor volume of a treated group]/mean tumor volume of the control group; a T/C ratio) was determined on Day 20. The T/C ratios across a treatment group were compared to the T/C ratios of the control group using a two-tailed Welch's t-test.
The differences in the tumor growth trends over time between pairs of treatment groups were assessed using linear mixed effects regression models. These models account for the fact that each animal was measured at multiple time points. A separate model was fit for each comparison, and the areas under the curve (AUC) for each treatment group were calculated using the predicted values from the model. The percent decrease in AUC (dAUC) relative to the reference group was then calculated.
The 5F9 vcMMAE immunoconjugate was tested for single agent anti-tumor activity in the four primary human tumor xengraft models at varying concentrations in order to explore whether GCC expression levels played a role in tumor sensitivity. […] Free-MMAE was also used as a negative control.

[3] = Free-MMAE levels in serum vs. tumor after 5F9 vcMMAE; type: in vivo, mice; parameters: AUCinf Serum / AUCinf Tumor: concentration or dose not given beside the values; settings: for AUCinf Serum / AUCinf Tumor: free MMAE after 5F9 vcMMAE; for Tumor/Serum: ratio of MMAE AUCinf
Experimental: Thus, the 5F9 vcMMAE immunoconjugate was confirmed to bind to GCC in the refractory PHTX-11c model. Free-MMAE levels in serum vs. tumor were also assessed to ensure the 5F9 vcMMAE immunoconjugate was being processed by the tumors (i.e., that the immunoconjugate was being internalized and that MMAE was being cleaved). A comparison of free-MMAE serum and tumor levels in the MMAE-refractory PHTX-11c model and the sensitive PHTX-09c and HEK293 GCC #2 models is shown Table 27 below. The presence of drug was confirmed within the tumors during dosing and post-dosing. Additionally, the free-MMAE levels in this tumor model were the same as the levels seen in tumor xenograft models that were sensitive to the immunoconjugate.

[4] = tested on: PHTX-21c s.c. xenograft; test: MLN0264 and 5-Fluorouracil in PHTX-21C s.c. xenografts (Study CPGC-11-EF01); type: in vivo, CB-17 SCID mice; settings: for dAUC: 4 days off, reference vehicle
Experimental: (§1) Tumor volume was calculated using the formula: […]

[5] = tested on: PHTX-09c s.c. xenograft; test: 5F9 vcMMAE and cisplatin in PHTX-09c s.c. xenografts (Study CPGC-11-EF05)
[6] = tested on: PHTX-21c s.c. xenograft; test: MLN0264 and CPT-11 in PHTX-21C s.c. xenografts (Study CPGC-11-EF04); settings: PHTX-21c
[7] = tested on: PHTX-17c s.c. xenograft; test: MLN0264 and CPT-11 in PHTX-17C s.c. xenografts (Study CPGC-11-EF06); type: in vivo, CB-17 SCID mice; settings: PHTX-17c
Experimental: as §1

[8] = tested on: PHTX-11c s.c. xenograft; test: MLN0264 and CPT-11 in PHTX-11c s.c. xenografts (Study CPGC-12-EF01); settings: W1-W3
[9] = tested on: PHTX-09c s.c. xenograft; test: 5F9 vcMMAE and CPT-11 in PHTX-09C s.c. xenografts (Study CPGC-11-EF07)
[10] = tested on: PHTX-249 Pa s.c. xenograft; test: 5F9 vcMMAE and gemcitabine in PHTX-249 Pa s.c. xenografts (Study CPGC-13-EF08); type: in vivo, CB-17 SCID mice; settings: for dAUC: reference vehicle
Experimental: 264.4 ul stock Gemcitabine into 3135.6 ul NS.
(§2) Day D0 was the first day of treatment.
as §1
(§3) A negative dAUC is interpreted as an increase in AUC relative to the reference. It is important to evaluate not only the P value, but also the dAUC. Comparisons with significant P values, but small dAUC values, may not be of interest.

[11] = tested on: PHTX-249 Pa s.c. xenograft; test: 5F9 vcMMAE and gemcitabine in PHTX-249 Pa s.c. xenografts (Study CPGC-13-EF05); type: in vivo, CB-17 SCID mice; settings: reference vehicle
Experimental: as §2, §1, §3

[12] = tested on: PHTX-215 Pa s.c. xenograft; test: 5F9 vcMMAE and gemcitabine in PHTX-215 Pa s.c. xenografts (Study CPGC-13-EF10); type: in vivo, CB-17 SCID mice; settings: for dAUC (percent decrease in treatment AUC relative to reference group V, vehicle): PHTX-215 Pa s.c. xenograft, CB-17 SCID mice
Experimental: as §2, §1
Table 77A the annotation table for group symbols. […] A negative dAUC is interpreted as an increase in AUC relative to the reference. It is important to evaluate not only the P value, but also the dAUC. Comparisons with significant P values, but small dAUC values, may not be of interest.

[13] = Study A, 0.075 mg/kg IV QW × 3 doses
[14] = Study A, 0.15 mg/kg IV QW × 3 doses
[15] = Study B, 0.135 mg/kg IV QW × 3 doses
[16] = Study B, 0.18 mg/kg IV QW × 3 doses
[17] = CPT-11 10 mg/kg D1, D2 per week
[18] = CPT-11 15 mg/kg D1, D2 per week
[19] = CPT-11 10 mg/kg 2 d on 5 off i.v.
[20] = CPT-11 15 mg/kg 2 d on 5 off i.v.
[21] = PHTX-09c, CPT-11 10 mg/kg D1, 2 ×3 weeks
[22] = PHTX-215 Pa, immunoconjugate plus gemcitabine 15 mg/kg on days 1 and 3, or single agent gemcitabine

## CC[C@H](C)[C@@H]([C@@H](CC(=O)N1CCC[C@H]1[C@H](OC)[C@@H](C)C(=O)N[C@@H](Cc1ccccc1)C(=O)O)OC)N(C)C(=O)[C@@H](NC(=O)[C@H](C(C)C)N(C)C(=O)CCCCCN1C(=O)C=CC1=O)C(C)C [Free mcMMAF, reference compound] ({Hexanoyl(6-maleimido)}-[NMeV]V[Dil][Dolaproine]F-OH)
[1]; 150 μg/kg iv q7d×4
  TGI: −3.4
  CR/PR: 0
  T/C: 1.03
  TGD: −1.3

## CC[C@H](C)[C@@H]([C@@H](CC(=O)N1CCC[C@H]1[C@H](OC)[C@@H](C)C(=O)N[C@H](C)[C@@H](O)c1ccccc1)OC)N(C)C(=O)[C@@H](NC(=O)[C@@H](NC)C(C)C)C(C)C [MMAE, monomethyl auristatin E, reference compound] (H-[NMeV]V[Dil][Dolaproine]-X1)
[2]; [13]
  BW change (mean maximum percent): 8.3%
  TGD: 1.0 days
[2]; [14]
  BW change (mean maximum percent): 10.8%
  TGD: 2.0 days
[2]; [15]
  BW change (mean maximum percent): 9.3%
  TGD: 0.2 days
[2]; [16]
  BW change (mean maximum percent): −2.3%
  TGD: 8.6 days
[2]; Study B, 0.18 mg/kg IV QW × 3 doses, Day 20, 0.18 mg/kg
  TGI: 50.4 (p > 0.001) %
[2]; Study B, day 7, 0.18 mg/kg MMAE group and 0.938 mg/kg 5F9-vcMMAE group
  greatest maximum body weight loss during treatment period: 2.3%
[3]; 293 GCC #2 model
  AUCinf Serum: 0.0563 µg·h/mL
  AUCinf Tumor: 24.953 µg·h/mL
  Tumor/Serum: 443
[3]; PHTX-9C model
  AUCinf Serum: 0.0683 µg·h/mL
  AUCinf Tumor: 8.67 µg·h/mL
  Tumor/Serum: 127
[3]; PHTX-11C model
  AUCinf Serum: 0.0441 µg·h/mL
  AUCinf Tumor: 13.4 µg·h/mL
  Tumor/Serum: 304
[1]; 300 μg/kg iv q7d×4
  TGI: 35.6
  CR/PR: 0
  T/C: 0.64
  TGD: 2

## O=c1[nH]cc(F)c(=O)[nH]1 [5-FU, 5-Fluorouracil, reference compound]
[4]; PHTX-21c, 15 mg/kg and 25 mg/kg, 3 day on/4 day off
  single agent anti-tumor activity: relatively low anti-tumor activity
[4]; group E: 5-Fu 15 mg/kg 3 days on
  dAUC: 44.1%
[4]; group F: 5-Fu 25 mg/kg 3 days on
  dAUC: 52.6%

## N.N.[Cl][Pt][Cl] [cisplatin]
[5]; 4 mg/kg once weekly
  number of doses tolerated: 2 doses
[5]; 6 mg/kg once weekly
  number of doses tolerated: 1 dose
[5]; PHTX-09c, cisplatin alone
  body weight loss: > 15%
[5]; group C: cisplatin 4 mg/kg QW x2, reference vehicle
  dAUC: 50.6%

## CCc1c2c(nc3ccc(OC(=O)N4CCC(N5CCCCC5)CC4)cc13)-c1cc3c(c(=O)n1C2)COC(=O)[C@]3(O)CC [CPT-11, irinotecan]
[6]; [17]
  Days to 1000 mm^3: >15 days
  T/C: 0.22
  TGI: 78.4%
[6]; [18]
  Days to 1000 mm^3: >15 days
  T/C: 0.16
  TGI: 84.4%
[6]; CPT-11 30 mg/kg D1 QW
  Days to 1000 mm^3: >15 days
  T/C: 0.37
  TGI: 62.8%
[6]; the two lower doses administered (10 and 15 mg/kg)
  single agent anti-tumor activity: moderate to high single agent activity
[7]; CPT-11 10 mg/kg QD 2on 5off
  Days to 1000 mm^3: >17 days
  T/C: 0.28
  TGI: 71.7%
[7]; CPT-11 15 mg/kg 2 on 5off
  Days to 1000 mm^3: >17 days
  T/C: 0.22
  TGI: 77.7%
[7]; CPT-11 30 mg/kg QW
  Days to 1000 mm^3: >17 days
  T/C: 0.4
  TGI: 60.5%
[8]; [19]
  Days to 1000 mm^3: >18 days
  T/C: 0.34
  TGI: 65.9%
[8]; [20]
  Days to 1000 mm^3: >18 days
  T/C: 0.31
  TGI: 69.2%
[8]; CPT-11 30 mg/kg (D1 QW) i.v.
  Days to 1000 mm^3: >18 days
  T/C: 0.39
  TGI: 61.1%
[9]; PHTX-09c (FIGS. 8B and 8C)
  single agent activity: moderate
[9]; [21]
  Days to 1000 mm^3: >23 days
  T/C: 0.4
  TGI: 60.3%

## Nc1ccn([C@@H]2O[C@H](CO)[C@@H](O)C2(F)F)c(=O)n1 [gemcitabine]
[10]; PHTX-249 Pa (Studies CPGC-13-EF05/EF08), 5F9 vcMMAE 7.5 mg/kg, gemcitabine 15 mg/kg on days 1 and 3, alone or combined
  tumor regressions (animals): no tumor regressions
[10]; PHTX-249 Pa, 5F9 vcMMAE plus gemcitabine 15 mg/kg on days 1 and 3 vs single agent
  tumor growth delay: 17 days
[10]; group D: Gemcitabine 15 mg/kg BIW
  dAUC: 52.4%
[10]; group E: Gemcitabine 15 mg/kg D1,D3/week
  dAUC: 76.9%
[11]; group B: Gemcitabine 15 mg/kg BIW
  dAUC: 46.0%
[11]; group C: Gemcitabine 20 mg/kg BIW
  dAUC: 46.7%
[12]; [22]
  TGI: 69%
  tumor growth delay: 22.7 days
  tumor regressions (animals): no tumor regressions
[12]; group C: Gemcitabine 15 mg/kg IV D1,D3/week x3
  dAUC (percent decrease in treatment AUC relative to reference group V, vehicle): 61.0%
[12]; group F: Gemcitabine 20 mg/kg IV BIW
  dAUC (percent decrease in treatment AUC relative to reference group V, vehicle): 65.2%
